Source: patent US20230083885A1, “MODULATORS OF INTEGRATED STRESS RESPONSE PATHWAY” (Praxis Biotech LLC, priority 2021, published 2023)
Read-outs that look alike come from different tables or passages of the source.

Key:
ATF4 = ATF4 expression inhibition assay (ATF4 5'UTR luciferase reporter, thapsigargin-stressed); format: cell-based; settings: Homo sapiens, HEK-293T, read-out: ATF4 inhibition
Description: The ATF4 reporter was prepared by fusing the human full length 5′UTR of ATF4 (NCBI Accession No. BC022088.2) upstream of the firefly luciferase coding sequence lacking the initiator methionine. The fused sequence was cloned into pLenti-EF1a-C-Myc-DDK-IRES-Puro cloning vector (Origen #PS100085) using standard methods.
HEK293T cells carrying the ATF4 luciferase reporter were plated on 96-well plates (Nunc) at 10,000 cells per well. Cells were treated two days after seeding with 100 nM thapsigargin (Tg) (Sigma-Aldrich #T9033) in the presence of different concentrations of selected compounds ranging from 0.1 nM to 10 μM. Cells without treatment or cells treated with Tg alone were used as controls. Assay plates containing cells were incubated for 3 hours at 37° C.
Luciferase reactions were performed using Luciferase Assay System (Promega #E1501) as specified by the manufacturer. Luminescence was read with an integration time of 1 s and a gain of 110 using a Cytation-5 multi-mode microplate reader (BioTek).

[1] = tested on: Chinese hamster ovary (CHO) cells; test: Protein synthesis assay (puromycin incorporation, Western blot); format: cell-based; settings: Cricetulus griseus, read-out: % Protein synthesis relative to untreated (1 μM test compound)
Description: Chinese hamster ovary (CHO) cells were maintained at 37° C. and 5% CO2 in Dulbecco's Modified Eagle's Media (DMEM) supplemented with 10% fetal bovine serum, 2 mM L-glutamine, 100 U/ml penicillin, and 100 μg/ml streptomycin. After reaching 80% of confluence, cells were detached and seeded on 6 well plates in complete media, allowed to recover overnight and treated for 2 hours with 1 μM of the test compound (to assess protein synthesis levels in unstressed condition), or for 2 hours with 300 nM Tg in the presence of 1 μM of the test compound (to assess the recovery of protein synthesis in a stressed condition). Cells with Tg alone were used as controls.
After the 2 hours treatments, media were replaced by adding 10 μg/ml puromycin (Sigma Aldrich #P8833) in complete media for 30 min. Media were removed and cells were lysed with SDS-PAGE lysis buffer. Lysates were transferred to 1.5 ml tubes and sonicated for 3 min and total protein amount were quantified using BCA Protein Assay Kit (Pierce). Equal amount of protein (30 μg) was loaded on SDS-PAGE gels.
A HRP-conjugated secondary antibody (Rockland) was employed to detect immune-reactive bands using enhanced chemiluminescence (ECL Western Blotting Substrate, Pierce). Quantification of protein bands was done by densitometry using ImageJ software.
The percentage levels were normalized to the media alone condition, which correspond to 100% protein synthesis. […]

[2] = HEK293T cells carrying ATF4 luciferase reporter, 100 nM thapsigargin, 3 hours
[3] = unstressed CHO cells (without Tg), 1 μM test compound, 2 hours, media alone = 100%

SMILES | IC50 (ATF4; [2]) [nM] | activity at 1 µM [1, 3] [%] | IC50 (ATF4; 3 h) [nM] | activity at 1 µM ([1]; CHO, 2 h) [%]
O=C(Nc1ccc2cc(Cl)ccc2n1)[C@H]1CC[C@H](c2nc(-c3ccc(Cl)cc3)cs2)CC1 [Compound 33, trans-4-(4-(4-chlorophenyl)thiazol-2-yl)-N-(6-chloroquinolin-2-yl)cyclohexanecarboxamide] |  |  | > 1000 | 11.4
O=C(N[C@H]1CC[C@H](c2nnc(-c3ccc(Cl)cc3)o2)CC1)c1cc2cc(Cl)ccc2o1 [Compound 6, trans-5-chloro-N-(4-(5-(4-chlorophenyl)-1,3,4-oxadiazol-2-yl)cyclohexyl)benzofuran-2-carboxamide] | < 10 | 111 |  | 
O=C(COc1ccc(Cl)c(F)c1)NN1CCC(c2nnc(-c3ccc(Cl)cc3)o2)CC1 [Compound 35, 2-(4-chloro-3-fluorophenoxy)-N-(4-(5-(4-chlorophenyl)-1,3,4-oxadiazol-2-yl)piperidin-1-yl)acetamide] | < 10 | 51.6 |  | 
O=C(COc1ccc(Cl)c(F)c1)N[C@H]1CC[C@H](c2nnc(COc3ccc(Cl)c(F)c3)o2)CC1 [Compound 13, trans-2-(4-chloro-3-fluorophenoxy)-N-(4-(5-((4-chloro-3-fluorophenoxy)methyl)-1,3,4-oxadiazol-2-yl)cyclohexyl)acetamide] | < 10 | 134 |  | 
O=C(COc1ccc(Cl)c(F)c1)N[C@H]1CC[C@H](c2nnc(Cc3ccc(Cl)cc3)o2)CC1 [Compound 238, 2-(4-chloro-3-fluorophenoxy)-N-(trans-4-(5-(4-chlorobenzyl)-1,3,4-oxadiazol-2-yl)cyclohexyl)acetamide] | < 10 | 74.6 |  | 
O=C(COc1ccc(Cl)c(F)c1)N[C@H]1CC[C@H](c2nc(-c3ccc(Cl)cc3)cs2)CC1 [Compound 34, trans-2-(4-chloro-3-fluorophenoxy)-N-(4-(4-(4-chlorophenyl)thiazol-2-yl)cyclohexyl)acetamide] |  |  | < 10 | 83.4
O=C(COc1ccc(Cl)cc1)NC[C@H]1CC[C@H](c2nnc(-c3ccc(Cl)cc3)o2)CC1 [Compound 4, trans-2-(4-chlorophenoxy)-N-((-4-(5-(4-chlorophenyl)-1,3,4-oxadiazol-2-yl)cyclohexyl)methyl)acetamide] |  |  | > 1000 | 123
O=C(N[C@H]1CC[C@H](c2nnc(Cc3ccc(Cl)cc3)o2)CC1)c1cc2cc(Cl)ccc2o1 [Compound 247, trans-5-chloro-N-(4-(5-(4-chlorobenzyl)-1,3,4-oxadiazol-2-yl)cyclohexyl)benzofuran-2-carboxamide] | < 10 | 278 |  | 
O=C(COc1ccc(Cl)c(F)c1)N[C@H]1CC[C@H](c2nnc(-c3ccc(Cl)cc3)o2)CC1 [Compound 7, trans-2-(4-chloro-3-fluorophenoxy)-N-(4-(5-(4-chlorophenyl)-1,3,4-oxadiazol-2-yl)cyclohexyl)acetamide] | < 10 | 80.9 |  | 

More lines, main results first:

IC50 (ATF4; [2]) [nM] | SMILES | activity at 1 µM [1, 3] [%] | IC50 (ATF4; 3 h) [nM] | activity at 1 µM ([1]; CHO, 2 h) [%]
10 to 100 | O=C(Nc1ccc2cc(Cl)ccc2n1)[C@H]1CC[C@H](c2cnn(-c3ccc(Cl)cc3)c2)CC1 [Compound 250, trans-4-(1-(4-chlorophenyl)-1H-pyrazol-4-yl)-N-(6-chloroquinolin-2-yl)cyclohexanecarboxamide] | 25 |  | 
< 10 | O=C(COc1ccc(Cl)c(F)c1)N[C@H]1CC[C@H](c2nnc([C@H]3CNc4cc(Cl)ccc4O3)o2)CC1 (single isomer, unassigned) [Compound 43] | 86.3 |  | 
< 10 | O=C(N[C@H]1CC[C@H](c2nnc(Cc3ccc(Cl)cc3)o2)CC1)c1ccc2cc(Cl)ccc2n1 [Compound 239, 6-chloro-N-(trans-4-(5-(4-chlorobenzyl)-1,3,4-oxadiazol-2-yl)cyclohexyl)quinoline-2-carboxamide] | 197 |  | 
> 1000 | O=C(Nc1ccc2cc(Cl)ccc2n1)[C@H]1CC[C@H](c2nnc(C3CCC(C(F)(F)F)CC3)o2)CC1 (stereo partly drawn) [Compound 29, trans-N-(6-chloroquinolin-2-yl)-4-(5-(4-(trifluoromethyl)cyclohexyl)-1,3,4-oxadiazol-2-yl)cyclohexanecarboxamide] | 11.5 |  | 
10 to 100 | O=C(Nc1ccc2cc(Cl)ccc2n1)[C@H]1CC[C@H](c2nnc(Cc3ccc(Cl)cc3)o2)CC1 [Compound 237, trans-4-(5-(4-chlorobenzyl)-1,3,4-oxadiazol-2-yl)-N-(6-chloroquinolin-2-yl)cyclohexanecarboxamide] | 51.3 |  | 
10 to 100 | O=C(N[C@H]1CC[C@H](c2nnc(COc3ccc(Cl)cc3)o2)CC1)c1ccc2cc(Cl)ccc2n1 [Compound 9, trans-6-chloro-N-(4-(5-((4-chlorophenoxy)methyl)-1,3,4-oxadiazol-2-yl)cyclohexyl)quinoline-2-carboxamide] | 204 |  | 
< 10 | O=C(COc1ccc(Cl)c(F)c1)N[C@H]1CC[C@H](c2nnc([C@@H]3CNc4cc(Cl)ccc4O3)o2)CC1 (single isomer, unassigned) [Compound 42] | 79.9 |  | 
< 10 | O=C(COc1ccc(Cl)c(F)c1)N[C@H]1CC[C@H](c2nnc(-c3ccc4cc(Cl)ccc4n3)o2)CC1 [Compound 14, trans-2-(4-chloro-3-fluorophenoxy)-N-(4-(5-(6-chloroquinolin-2-yl)-1,3,4-oxadiazol-2-yl)cyclohexyl)acetamide] | 176 |  | 
> 1000 | O=C(NCc1ccc2cc(Cl)ccc2n1)[C@H]1CC[C@H](c2nnc(-c3ccc(Cl)cc3)o2)CC1 [Compound 47, trans-4-(5-(4-chlorophenyl)-1,3,4-oxadiazol-2-yl)-N-((6-chloroquinolin-2-yl)methyl)cyclohexanecarboxamide] | 2 |  | 
